Tests used:
[1] = Cytotoxicity against mouse Neuro2a cells after 24 hrs by MTT assay; assay type: cell-based; details: N2a
[2] = test system: Biomphalaria glabrata; experiment: Molluscicidal activity against Biomphalaria glabrata at 10 ppm; assay type: organism-based; details: in vivo
[3] = Ichthyotoxicity to gold fish; assay type: organism-based; details: carassius auratus, in vivo; read-out: LD50 (the source's name)
[4] = Toxicity in Artemia salina; assay type: organism-based; details: in vivo, read-out: LD50 (the source's name)

`CCCCCCC[C@@H](C/C=C/CCC(=O)N(C)C/C(=C/Cl)[C@]12O[C@H]1CC=C(C)C2=O)OC` [MALYNGAMIDE N] gave an IC50 [1] of 12 µM.

For `CCCCCCC[C@@H](C/C=C/CCC(=O)NCCc1c[nH]c2ccccc12)OC` [HERMITAMIDE B], the Activity [2] was “Not Active”, the LC50 [3] was 25 µM and the LC50 [4] was 18 µM. It also gave an IC50 [1] of 5.5 µM.

For `CCCCCCC[C@@H](C/C=C/CCC(=O)NCCc1ccccc1)OC` [HERMITAMIDE A], the Activity [2] was “Not Active”, the LC50 [3] was 19 µM and the LC50 [4] was 5 µM. It also gave an IC50 [1] of 2.2 µM.

In the case of `CCCCCCC[C@@H](C/C=C/CCC(=O)N(C)C/C(=C/Cl)c1cccc(C)c1O)OC` [MALYNGAMIDE M], the IC50 [1] is reported as > 20 µM.
